Results taken from the supplement of paper PMC4862054.

Key:
Details in all cases: incubation time: 72 h
MFM-223 [1] = test: normalised viability (% of control), CellTiter-Blue; higher = more viable cells (about 100 = DMSO control)
Outline: (§1)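 Normalised viability is given for a single listed concentration of the series. In 384-well plates, breast cancer cell lines were incubated 72 h with compound, then read with CellTiter-Blue (2 h, 37 °C) at 560/590 nm. Per-plate scaling set vehicle to 100 and a positive kill control to 0, with Z'-factor quality control.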

HCC1143 [2] = test: as above
Outline: as §1

HCC1937 [3] = test: as above
Outline: as §1

MDA-MB-468 [4] = test: as above
Outline: as §1

CAL-120 = test: as above
Outline: as §1

SK-BR-3 [5] = test: as above
Outline: as §1

BT-474 [6] = test: as above
Outline: as §1

HDQ-P1 = test: as above
Outline: as §1

CAL-51 [7] = test: as above
Outline: as §1

MDA-MB-231 = test: as above
Outline: as §1

MDA-MB-453 = test: drug sensitivity score (DSS), CellTiter-Glo (DSS (AUC-based score)); higher = stronger drug effect (viability inhibition or cytotoxicity); extreme values may be limits of the assay
Outline: (§2)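 Normalisation on every plate relied on 0.1 % DMSO and a positive kill control. The plates, 384-well format, held compound at 5 concentrations 10-fold apart across a compound-specific 10,000-fold range, and breast cancer cell lines in 20 µl suspension were incubated on them for 72 h before CellTox Green and then CellTiter-Glo readings. The drug sensitivity score derives from the area under the fitted dose-response curve.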

MFM-223 [8] = test: as above
Outline: as §2

HCC1143 [9] = test: as above
Outline: as §2

HCC1599 = test: as above
Outline: as §2

HCC1937 [10] = test: as above
Outline: as §2

MDA-MB-468 [11] = test: as above
Outline: as §2

Hs578T = test: as above
Outline: as §2

BT-549 = test: as above
Outline: as §2

SK-BR-3 [12] = test: as above
Outline: as §2

BT-474 [13] = test: as above
Outline: as §2

CAL-51 [14] = test: as above
Outline: as §2

CAL-148 = test: as above
Outline: as §2

MCF-10A = test: as above
Outline: as §2

MDA-MB-436 = test: as above
Outline: as §2

CAL-85-1 = test: as above
Outline: as §2

## CCN(CCCOc1ccc2c(Nc3cc(CC(=O)Nc4cccc(F)c4)[nH]n3)ncnc2c1)CCOP(=O)(O)O [Barasertib]
MFM-223 [1]; 1 nM
  normalised viability: 103%
MFM-223 [1]; 100 nM
  normalised viability: 95.7%
MFM-223 [1]; 1000 nM
  normalised viability: 85.8%
HCC1143 [2]; 1 nM
  normalised viability: 124%
HCC1143 [2]; 100 nM
  normalised viability: 78.4%
HCC1143 [2]; 1000 nM
  normalised viability: 85.9%
HCC1937 [3]; 1 nM
  normalised viability: 69%
HCC1937 [3]; 100 nM
  normalised viability: 44.3%
HCC1937 [3]; 1000 nM
  normalised viability: 52.8%
MDA-MB-468 [4]; 1 nM
  normalised viability: 115%
MDA-MB-468 [4]; 100 nM
  normalised viability: 34.4%
MDA-MB-468 [4]; 1000 nM
  normalised viability: 26.5%
CAL-120; 1 nM
  normalised viability: 111%
CAL-120; 100 nM
  normalised viability: 61.9%
CAL-120; 1000 nM
  normalised viability: 51.7%
SK-BR-3 [5]; 1 nM
  normalised viability: 107%
SK-BR-3 [5]; 100 nM
  normalised viability: 82.7%
SK-BR-3 [5]; 1000 nM
  normalised viability: 91.9%
BT-474 [6]; 1 nM
  normalised viability: 108%
BT-474 [6]; 100 nM
  normalised viability: 95.1%
BT-474 [6]; 1000 nM
  normalised viability: 92.1%
HDQ-P1; 0.3 nM
  normalised viability: 103%
HDQ-P1; 3 nM
  normalised viability: 106%
HDQ-P1; 10 nM
  normalised viability: 109%
CAL-51 [7]; 0.3 nM
  normalised viability: 106%
CAL-51 [7]; 3 nM
  normalised viability: 103%
CAL-51 [7]; 10 nM
  normalised viability: 83.6%
MDA-MB-231; 1 nM
  normalised viability: 110%
MDA-MB-231; 100 nM
  normalised viability: 75.3%
MDA-MB-231; 1000 nM
  normalised viability: 81.1%

## CC(=O)Nc1ccc(C(=O)Nc2ccccc2N)cc1 [CI-994]
MFM-223 [1]; 1 nM
  normalised viability: 107%
MFM-223 [1]; 100 nM
  normalised viability: 109%
MFM-223 [1]; 1000 nM
  normalised viability: 102%
HCC1143 [2]; 1 nM
  normalised viability: 113%
HCC1143 [2]; 100 nM
  normalised viability: 118%
HCC1143 [2]; 1000 nM
  normalised viability: 101%
HCC1937 [3]; 1 nM
  normalised viability: 86.9%
HCC1937 [3]; 100 nM
  normalised viability: 101%
HCC1937 [3]; 1000 nM
  normalised viability: 89.9%
MDA-MB-468 [4]; 1 nM
  normalised viability: 99.6%
MDA-MB-468 [4]; 100 nM
  normalised viability: 115%
MDA-MB-468 [4]; 1000 nM
  normalised viability: 100%
CAL-120; 1 nM
  normalised viability: 99.9%
CAL-120; 100 nM
  normalised viability: 106%
CAL-120; 1000 nM
  normalised viability: 88.9%
SK-BR-3 [5]; 1 nM
  normalised viability: 103%
SK-BR-3 [5]; 100 nM
  normalised viability: 97.8%
SK-BR-3 [5]; 1000 nM
  normalised viability: 99.4%
BT-474 [6]; 1 nM
  normalised viability: 104%
BT-474 [6]; 100 nM
  normalised viability: 117%
BT-474 [6]; 1000 nM
  normalised viability: 97.4%
HDQ-P1; 0.3 nM
  normalised viability: 113%
HDQ-P1; 3 nM
  normalised viability: 125%
HDQ-P1; 10 nM
  normalised viability: 108%
CAL-51 [7]; 0.3 nM
  normalised viability: 94.6%
CAL-51 [7]; 3 nM
  normalised viability: 94.6%
CAL-51 [7]; 10 nM
  normalised viability: 96.7%
MDA-MB-231; 1 nM
  normalised viability: 104%
MDA-MB-231; 100 nM
  normalised viability: 101%
MDA-MB-231; 1000 nM
  normalised viability: 115%

## COc1cc2ncnc(Nc3ccc(F)c(Cl)c3)c2cc1NC(=O)/C=C/CN1CCCCC1 [Dacomitinib]
MDA-MB-453
  drug sensitivity score: 5.43
MFM-223 [8]
  drug sensitivity score: 0
HCC1143 [9]
  drug sensitivity score: 0
HCC1599
  drug sensitivity score: 0
HCC1937 [10]
  drug sensitivity score: 0
MDA-MB-468 [11]
  drug sensitivity score: 3.31
Hs578T
  drug sensitivity score: 0
BT-549
  drug sensitivity score: 1.11
SK-BR-3 [12]
  drug sensitivity score: 14.6
BT-474 [13]
  drug sensitivity score: 0.458
CAL-51 [14]
  drug sensitivity score: 0
CAL-148
  drug sensitivity score: 0
MCF-10A
  drug sensitivity score: 16.9
MDA-MB-436
  drug sensitivity score: 0.907
CAL-85-1
  drug sensitivity score: 8.62

## N#CCNC(=O)c1ccc(-c2ccnc(Nc3ccc(N4CCOCC4)cc3)n2)cc1 [Momelotinib]
MDA-MB-453
  drug sensitivity score: 0
MFM-223 [8]
  drug sensitivity score: 0
HCC1143 [9]
  drug sensitivity score: 1.42
HCC1599
  drug sensitivity score: 0
HCC1937 [10]
  drug sensitivity score: 0
MDA-MB-468 [11]
  drug sensitivity score: 5.4
Hs578T
  drug sensitivity score: 4.38
BT-549
  drug sensitivity score: 6.02
SK-BR-3 [12]
  drug sensitivity score: 2.75
BT-474 [13]
  drug sensitivity score: 4.25
CAL-51 [14]
  drug sensitivity score: 0
CAL-148
  drug sensitivity score: 0
MCF-10A
  drug sensitivity score: 5.18
MDA-MB-436
  drug sensitivity score: 0
CAL-85-1
  drug sensitivity score: 4.3

## CCCCCCCCCCCCCCCCCCOP(=O)([O-])OC1CC[N+](C)(C)CC1 [Perifosine]
MDA-MB-453
  drug sensitivity score: 0
MFM-223 [8]
  drug sensitivity score: 0
HCC1143 [9]
  drug sensitivity score: 0
HCC1599
  drug sensitivity score: 0
HCC1937 [10]
  drug sensitivity score: 0.853
MDA-MB-468 [11]
  drug sensitivity score: 0
Hs578T
  drug sensitivity score: 0
BT-549
  drug sensitivity score: 0
SK-BR-3 [12]
  drug sensitivity score: 0
BT-474 [13]
  drug sensitivity score: 0
CAL-51 [14]
  drug sensitivity score: 0
CAL-148
  drug sensitivity score: 0
MCF-10A
  drug sensitivity score: 0.579
MDA-MB-436
  drug sensitivity score: 0.0848
CAL-85-1
  drug sensitivity score: 0

## Cc1ccc(C(=O)Nc2ccc(CN3CCN(C)CC3)c(C(F)(F)F)c2)cc1C#Cc1cnc2cccnn12 [Ponatinib]
MFM-223 [1]; 1 nM
  normalised viability: 100%
MFM-223 [1]; 1000 nM
  normalised viability: 35.7%
HCC1143 [2]; 100 nM
  normalised viability: 113%
HCC1143 [2]; 1000 nM
  normalised viability: 98.8%
HCC1937 [3]; 1 nM
  normalised viability: 78.3%
HCC1937 [3]; 100 nM
  normalised viability: 115%
MDA-MB-468 [4]; 1 nM
  normalised viability: 98.2%
MDA-MB-468 [4]; 1000 nM
  normalised viability: 78.7%
CAL-120; 1 nM
  normalised viability: 95.3%
CAL-120; 100 nM
  normalised viability: 85.4%
CAL-120; 1000 nM
  normalised viability: 13.8%
SK-BR-3 [5]; 1 nM
  normalised viability: 104%
SK-BR-3 [5]; 100 nM
  normalised viability: 103%
SK-BR-3 [5]; 1000 nM
  normalised viability: 71.3%
BT-474 [6]; 1 nM
  normalised viability: 102%
BT-474 [6]; 100 nM
  normalised viability: 110%
BT-474 [6]; 1000 nM
  normalised viability: 91.2%
HDQ-P1; 0.3 nM
  normalised viability: 102%
HDQ-P1; 3 nM
  normalised viability: 126%
HDQ-P1; 10 nM
  normalised viability: 115%
CAL-51 [7]; 0.3 nM
  normalised viability: 95.2%
CAL-51 [7]; 3 nM
  normalised viability: 97.7%
CAL-51 [7]; 10 nM
  normalised viability: 89.5%
MDA-MB-231; 1 nM
  normalised viability: 98.8%
MDA-MB-231; 100 nM
  normalised viability: 82.6%
MDA-MB-231; 1000 nM
  normalised viability: 16.9%

## CS(=O)(=O)c1ccc(C2=C(c3ccccc3)C(=O)OC2)cc1 [Rofecoxib]
MDA-MB-453
  drug sensitivity score: 0
MFM-223 [8]
  drug sensitivity score: 0
HCC1143 [9]
  drug sensitivity score: 0
HCC1599
  drug sensitivity score: 0
HCC1937 [10]
  drug sensitivity score: 0
MDA-MB-468 [11]
  drug sensitivity score: 0
Hs578T
  drug sensitivity score: 0
BT-549
  drug sensitivity score: 0
SK-BR-3 [12]
  drug sensitivity score: 0
BT-474 [13]
  drug sensitivity score: 0
CAL-51 [14]
  drug sensitivity score: 0.464
CAL-148
  drug sensitivity score: 0
MCF-10A
  drug sensitivity score: 0
MDA-MB-436
  drug sensitivity score: 0
CAL-85-1
  drug sensitivity score: 0

## O=C(CCCCCCC(=O)Nc1ccc([C@H]2O[C@@H](CSc3nc(-c4ccccc4)c(-c4ccccc4)o3)C[C@@H](c3ccc(CO)cc3)O2)cc1)NO [Tubacin]
MDA-MB-453
  drug sensitivity score: 8.42
MFM-223 [8]
  drug sensitivity score: 4.83
HCC1143 [9]
  drug sensitivity score: 3.15
HCC1599
  drug sensitivity score: 4.67
HCC1937 [10]
  drug sensitivity score: 3.76
MDA-MB-468 [11]
  drug sensitivity score: 8.6
Hs578T
  drug sensitivity score: 0
BT-549
  drug sensitivity score: 2.95
SK-BR-3 [12]
  drug sensitivity score: 1.97
BT-474 [13]
  drug sensitivity score: 4.89
CAL-51 [14]
  drug sensitivity score: 5.04
CAL-148
  drug sensitivity score: 0.986
MCF-10A
  drug sensitivity score: 0
MDA-MB-436
  drug sensitivity score: 0
CAL-85-1
  drug sensitivity score: 7.14
